Measurements: the supplement of paper PMC11781733

Experiments:
Conditions in all cases: exposure time: 15 min to 3 h acute
[1] = system: Dugesia japonica; test: loss of heat-induced scrunching incidence (% planarians (vehicle-normalised)); higher = higher incidence or increase relative to vehicle control
Description: (§1)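 Adult asexual Dugesia japonica planarians (1 per well, 48-well plate, n=24 over technical triplicates) were exposed acutely (15 min to 3 h) to each compound (0.5% DMSO or water vehicle) and screened on a robotic platform for crawl-out, stickiness, body shape, phototaxis, noxious-heat scrunching and locomotion endpoints. Binary endpoints are incidence rate x100 normalised to in-plate vehicle controls. Continuous endpoints are the median response normalised to the plate vehicle median, as % change or difference. Negative incidences after vehicle subtraction were set to 0.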

[2] = system: Dugesia japonica; test: speed second 30 s blue light vs vehicle (% change vs vehicle); higher = higher incidence or increase relative to vehicle control
Description: as §1

[3] = system: Dugesia japonica; test: speed in dark vs vehicle (% change vs vehicle); higher = higher incidence or increase relative to vehicle control
Description: as §1

[4] = system: Dugesia japonica; test: pharynx extrusion incidence (% planarians (vehicle-normalised)); higher = higher incidence or increase relative to vehicle control
Description: as §1

[5] = system: Dugesia japonica; test: corkscrew incidence (% planarians (vehicle-normalised)); higher = higher incidence or increase relative to vehicle control
Description: as §1

[6] = system: Dugesia japonica; test: C-shape incidence (% planarians (vehicle-normalised)); higher = higher incidence or increase relative to vehicle control
Description: as §1

[7] = system: Dugesia japonica; test: contracted body shape incidence (% planarians (vehicle-normalised)); higher = higher incidence or increase relative to vehicle control
Description: as §1

[8] = system: Dugesia japonica; test: loss of phototaxis incidence (% planarians (vehicle-normalised)); higher = higher incidence or increase relative to vehicle control
Description: as §1

[9] = system: Dugesia japonica; test: resting fraction in dark vs vehicle (difference in fraction x100 vs vehicle); higher = higher incidence or increase relative to vehicle control
Description: as §1

[10] = system: Dugesia japonica; test: noxious heat displacement strength vs vehicle (% change vs vehicle); higher = higher incidence or increase relative to vehicle control
Description: as §1

[11] = system: Dugesia japonica; test: hyperkinesis incidence (% planarians (vehicle-normalised)); higher = higher incidence or increase relative to vehicle control
Description: as §1

[12] = system: Dugesia japonica; test: stickiness incidence (% planarians (vehicle-normalised)); higher = higher incidence or increase relative to vehicle control
Description: as §1

[13] = system: Dugesia japonica; test: any abnormal body shape incidence (% planarians (vehicle-normalised)); higher = higher incidence or increase relative to vehicle control
Description: as §1

[14] = system: Dugesia japonica; test: crawl-out incidence (% planarians); higher = higher incidence or increase relative to vehicle control
Description: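 Adult asexual Dugesia japonica planarians (1 per well, 48-well plate, n=24 over technical triplicates) were exposed acutely (15 min to 3 h) to each compound (0.5% DMSO or water vehicle) and screened on a robotic platform for crawl-out, stickiness, body shape, phototaxis, noxious-heat scrunching and locomotion endpoints. Binary endpoints are incidence rate x100. Continuous endpoints are the median response normalised to the plate vehicle median, as % change or difference. Negative incidences after vehicle subtraction were set to 0.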

[15] = system: Dugesia japonica; test: resting fraction in blue light vs vehicle (difference in fraction x100 vs vehicle); higher = higher incidence or increase relative to vehicle control
Description: as §1

[16] = system: Dugesia japonica; test: speed first 30 s blue light vs vehicle (% change vs vehicle); higher = higher incidence or increase relative to vehicle control
Description: as §1

[17] = system: Dugesia japonica; test: total locomotor bursts minus vehicle (bursts difference vs vehicle); higher = higher incidence or increase relative to vehicle control
Description: as §1

[18] = system: Dugesia japonica; test: anxiety (time in outer well region) vs vehicle (% change vs vehicle); higher = higher incidence or increase relative to vehicle control
Description: as §1

Row | Compound | loss of heat-induced scrunching incidence [1] | speed second 30 s blue light [2] | speed in dark [3] | pharynx extrusion incidence [4] | corkscrew incidence [5] | C-shape incidence [6] | contracted body shape incidence [7] | loss of phototaxis incidence [8] | resting fraction in dark [9] | noxious heat displacement strength [10] | hyperkinesis incidence [11] | stickiness incidence [12] | any abnormal body shape incidence [13] | crawl-out incidence [14] | resting fraction in blue light [15] | speed first 30 s blue light [16] | total locomotor bursts minus vehicle [17] | anxiety [18]
1 | O=C1CCc2ccc(OCCCCN3CCN(c4cccc(Cl)c4Cl)CC3)cc2N1 [aripiprazole] (3.16 µM) | 4.17 | 8.71 | 27.4 | 0 | 0 | 0 | 0 | 45.8 | -2.43 | 0.14 | 4.17 | ≤ 0 | 4.17 | 0 | 0.05 | 18.9 | -2.5 | 0.35
2 | O=C1CCc2ccc(OCCCCN3CCN(c4cccc(Cl)c4Cl)CC3)cc2N1 [aripiprazole] (10 µM) | 16.7 | -63.1 | -46.8 | 0 | 4.17 | 12.5 | 0 | 25 | 34.5 | -17.3 | 4.17 | ≤ 0 | 20.8 | 0 | 19.8 | -70.8 | 31 | -16.3
3 | O=C1CCc2ccc(OCCCCN3CCN(c4cccc(Cl)c4Cl)CC3)cc2N1 [aripiprazole] (31.6 µM) | 70.8 | -81.8 | -62.3 | 4.17 | 4.17 | 62.5 | 0 | 25 | 56.6 | -38.6 | 12.5 | ≤ 0 | 70.8 | 0 | 32 | -79.9 | 53 | -46.5
4 | O=C1CCc2ccc(OCCCCN3CCN(c4cccc(Cl)c4Cl)CC3)cc2N1 [aripiprazole] (100 µM) | 78.3 | -88.8 | -64.8 | 0 | 0 | 60.9 | 0 | 47.8 | 56.9 | -49 | 17.4 | ≤ 0 | 65.2 | 4.17 | 69.8 | -88.7 | 55 | -67.2
5 | O=C(CCCN1CCC(O)(c2ccc(Br)cc2)CC1)c1ccc(F)cc1 [bromperidol] (3.16 µM) | 47.6 | -53.4 | -33.9 | 0 | 14.3 | 4.76 | 9.52 | ≤ 0 | 24 | -37 | 47.6 | ≤ 0 | 57.1 | 33.3 | 28.6 | -55.1 | 11 | -1.33
6 | O=C(CCCN1CCC(O)(c2ccc(Br)cc2)CC1)c1ccc(F)cc1 [bromperidol] (10 µM) | 47.6 | -60.1 | -40.7 | 0 | 42.9 | 0 | 4.76 | ≤ 0 | 50.5 | -32.1 | 52.4 | ≤ 0 | 66.7 | 25 | 38 | -49.8 | 8 | 7.64
7 | O=C(CCCN1CCC(O)(c2ccc(Br)cc2)CC1)c1ccc(F)cc1 [bromperidol] (31.6 µM) | 52.2 | -63.1 | -41 | 0 | 21.7 | 4.35 | 30.4 | ≤ 0 | 43.3 | -36.2 | 69.6 | ≤ 0 | 73.9 | 8.33 | 37.3 | -69 | 0.5 | 20.6
8 | O=C(CCCN1CCC(O)(c2ccc(Br)cc2)CC1)c1ccc(F)cc1 [bromperidol] (100 µM) | 28.6 | -63.4 | -39.1 | 0 | 23.8 | 4.76 | 4.76 | ≤ 0 | 43.4 | -48 | 42.9 | ≤ 0 | 57.1 | 25 | 40.4 | -53.3 | 17 | 21.1
9 | CC(NC(C)(C)C)C(=O)c1cccc(Cl)c1 (stereo not drawn) [bupropion] (31.6 µM) | 16.7 | -19.4 | -1.56 | 0 | 0 | 0 | 4.17 | 20.8 | 17.5 | -22.3 | 0 | ≤ 0 | 0 | 0 | 23.4 | -59.5 | -7.5 | 2.47
10 | CC(NC(C)(C)C)C(=O)c1cccc(Cl)c1 (stereo not drawn) [bupropion] (100 µM) | 12.5 | 20.6 | -35.4 | 0 | 0 | 0 | 0 | 4.17 | 25.7 | -32.4 | 0 | 13 | 0 | 0 | -3.29 | 9.9 | -1 | 3.91
11 | CC(NC(C)(C)C)C(=O)c1cccc(Cl)c1 (stereo not drawn) [bupropion] (316 µM) | 8.33 | -21.6 | 22.5 | 0 | 0 | 0 | 0 | ≤ 0 | 51.6 | -7.65 | 4.17 | 29.2 | 0 | 0 | 25.2 | -72 | -7 | 5.33
12 | CC(NC(C)(C)C)C(=O)c1cccc(Cl)c1 (stereo not drawn) [bupropion] (1000 µM) | 83.3 | -9.8 | -56.9 | 0 | 33.3 | 0 | 0 | ≤ 0 | 56.1 | -39.5 | 45.8 | 37.5 | 50 | 0 | 19.6 | -64.2 | -2.5 | 13.4
13 | O=C1CC2(CCCC2)CC(=O)N1CCCCN1CCN(c2ncccn2)CC1 [buspirone] (3.16 µM) | ≤ 0 | -34.4 | 8.61 | 0 | 0 | 0 | 0 | 16.7 | 4.15 | -34.1 | 8.33 | 4.17 | 8.33 | 0 | 8.98 | -21.3 | 4.25 | -2.65
14 | Cc1cc2c(s1)Nc1ccccc1N=C2N1CCN(C)CC1 [olanzapine] (10 µM) | 58.3 | -80.9 | -68 | 0 | – | 4.17 | 0 | 4.17 | 72.3 | -28.1 | 58.3 | ≤ 0 | 58.3 | 0 | 63.5 | -85.6 | 20 | -12.4
15 | Cc1cc2c(s1)Nc1ccccc1N=C2N1CCN(C)CC1 [olanzapine] (31.6 µM) | 75 | -89.9 | -71.9 | 0 | 16.7 | 4.17 | – | 17.4 | 78.3 | -52.3 | 62.5 | 16.7 | 75 | 4.17 | 77.7 | -93.9 | 6 | 24.7
